From ChEMBL document CHEMBL5715937, “In vitro activity of Bcr-Abl inhibitors AMN107 and BMS-354825 against clinically relevant imatinib-resistant Abl kinase domain mutants” (Cancer Res, 2005)
Active and inactive are the calls of the source. No cut-off for these calls is given here.

Legend:
BaF3 [1] = assay: Induction of apoptosis in mouse BaF3 cells expressing Bcr-Abl G250E mutant at 30 to 300 nM incubated for 72 hrs by Annexin V-phycoerythrin and 7-amino-actinomycin D staining based PCA instrument analysis; assay type: functional, cell-based; conditions: dose 30-300 nM
[2] = Inhibition of BCR-ABL M351T mutant (unknown origin) expressed in mouse BaF3 cells assessed as inhibition of cell growth incubated for 72 hrs by […] CellTiter96 viability analysis
[3] = Cytotoxicity against mouse BaF3 cells assessed as reduction in cell proliferation incubated for 72 hrs by […] CellTiter96 viability analysis; assay type: toxicity
BaF3 [4] = assay: Induction of apoptosis in mouse BaF3 cells expressing Bcr-Abl Q252H mutant at 30 to 300 nM incubated for 72 hrs by Annexin V-phycoerythrin and 7-amino-actinomycin D staining based PCA instrument analysis; assay type: functional, cell-based; conditions: dose 30-300 nM

Which Activity (BaF3 [1]) does the source give for `Cc1cn(-c2cc(NC(=O)c3ccc(C)c(Nc4nccc(-c5cccnc5)n4)c3)cc(C(F)(F)F)c2)cn1` [NILOTINIB] here?
Its Activity is “Active”.

And the IC50 ([2]; BaF3, 72 h)?
The IC50 was 15 nM.

And the IC90 ([2]; BaF3, time 72 hrs, condition chronic myelogenous leukemia)?
Its IC90 is 31 nM.

And the IC50 at 72 h [3]?
The IC50 at 72 h was over 2000 nM.

And the Activity (BaF3 [4])?
Its Activity is “Active”.
